SMILES strings stand for the structures.

The results in this text go back to article PMC10614203, “Synthesis, Structure–Activity Relationships, Radiofluorination, and Biological Evaluation of [^18F]RM365, a Novel Radioligand for Imaging the Human Cannabinoid Receptor Type 2 (CB2R) in the Brain with PET” (Journal of Medicinal Chemistry, 2023).

On the set-up of this data set: species or system mouse. The note with it: female, in vivo. From the text:
The biodistribution of [^18F]RM365 was investigated in vivo in mice (n = 4) and rats (n = 2) by dynamic PET imaging studies.
Among others, increasing activity in the duodenum over time and accumulation in the brown adipose tissue (BAT) were observed (Figure S10). In contrast, a slow washout from the salivary glands, muscle, bones, and kidneys could be observed. An initial comparably high TAC peak value with a SUVmean > 4 in the liver, left ventricle (blood), heart wall, and lung followed by a fast washout and a subsequent slower washout phase could be observed. Furthermore, we conclude a mainly hepatic excretion of the activity, as shown by the liver and jejunum TACs in both species and a bladder activity of 0.24 ± 0.19% of injected dose at 60 min in mice (Figures S8 and S10).
In vivo biodistribution studies of [^18F]RM365 were performed in female CD-1 mice (n = 4, 31 ± 3 g) and female Wistar rats (n = 4, 150 ± 11 g). For the uptake studies into the brain, male Wistar rats carrying the stereotactically injected AAV2/7-CaMKII0.4-intron-hCB2R(D80N) (right striatum) and AAV2/7-CaMKII0.4-intron-3flag-eGFP (control/contralateral, left striatum) were used (n = 6; bodyweights were 260 ± 11 g). Data were assessed by dynamic small animal PET (Nanoscan, Mediso, Budapest, Hungary) in 60 min recordings, followed by T1-weighted (GRE, TR/TE = 15.0/2.4 ms, 252/252, FA = 25°) MR imaging with whole-body coils for anatomical correlation and attenuation correction.
The PET scans were performed 3−4 months after the stereotactic injections. […] Nonparametric (semiquantitative) analysis of achieved time–activity curves (TACs) was performed with Microsoft Excel to determine the time to peak, the TAC peak value, and the area under the curve (AUC) [drawing 1] where c (radioactivity) is expressed as the standardized uptake value normalized to the bodyweight in g (SUV). […] Area under the curves (AUCs) and corresponding 95% confidence intervals (CIs, 95%) were calculated with GraphPad Prism (v.8.2) following the assumptions described by Gagnon et al.[39]

Take `CC1(C)Cc2ccc(C#N)cc2[C@@H]1NC(=O)c1cc2cc([18F])ccc2[nH]1` [[^18F]RM365]: the “initial TAC peak value (SUVmean)” value (CD-1 (mice), Wistar (rats), mouse) is greater than 4. The same compound displayed an SUV in spleen (CD-1, mouse) of 0.7 ± 0.1. The bladder activity (CD-1, mouse, 60 min) is 0.24 ± 0.19 % of injected dose.
